From patent publication US20060270727A1, “Small molecule therapeutics and uses therefor” (priority 2005, published 2006)

How the values were obtained:
[1] = system: frataxin protein in GM15850 FRDA cells; experiment: Western blot of frataxin protein; type: cell-based, human; conditions: 1-2 μM for 7 days, SDS-PAGE and western blot
Method: Since the primary transcripts from FRDA frataxin genes contain long stretches of GAA repeat RNA sequence, it is conceivable that this RNA will not be correctly processed into mature frataxin mRNA and frataxin protein will not be produced. To test whether polyamide FA 1 leads to increased levels of frataxin protein in treated lymphoid cells, total cell extracts from polyamide-treated (1-2 μM for 7 days) and untreated GM15851 control and GM15850 FRDA cells were subjected to SDS-PAGE, and the corresponding blots were probed with anti-frataxin or anti-actin antibodies. SDS-PAGE (i.e., sodium dodecylsulfate-polyacrylamide gel electrophoresis) was conducted by standard methods well known in the art.
Western Blot Analysis. Total cell extracts were used for SDS-PAGE and western blotting with antibodies to human frataxin (Chemicon) or actin (Santa Cruz Biotechnology) as a control for cell number and protein loading. Signals were detected by chemiluminescence after probing the blot with HRP-conjugated secondary antibody (Supersignal West, Pierce). To quantify the relative levels of proteins, autoradiograms (within the linear response range of X-ray film) were converted into digital images and the signals quantified using Molecular Dynamics ImageQuant software.

[2] = system: duplex DNA having GAA repeats ((GAA)33); experiment: Quantitative DNase I footprinting on extended GAA repeat DNA; type: binding
Description: The term “mismatch” in the context of polyamides or linkable units refers to replacement of one or more linkable units in a polyamide such that recognition for a specific duplex DNA pair is energetically less favorable (Dervan & Edelson, Id.; Urbach & Dervan, Id). The term “match” in the context of polyamide binding to DNA refers to a linkable unit selected according to the polyamide recognition rules of Urbach & Dervan (Id). or Dervan & Edelson (Id).
where the second oligonucleotide was labeled with γ-^32P ATP and polynucleotide kinase, using standard procedures, to generate a PCR product labeled on the GAA strand. A 204 bp singly end-labeled PCR product was derived from plasmid pMP142 DNA, containing 33 GAA repeats (Ohshima et al., Id.), with following oligonucleotides: […]

## CN(C)CCCNC(=O)CCNC(=O)c1nc(NC(=O)CCNC(=O)c2cc(NC(=O)c3nc(NC(=O)CCNC(=O)c4cc(NC(=O)c5nccn5C)cn4C)cn3C)cn2C)cn1C [FA1, ImPyβImPyβImβDp]
[1]
  increase in frataxin protein: 2-3 fold
[2]; equals target site concentration in the reaction
  concentration at 50% occupancy of the DNA: ~1.5 nM
[2]; several molecules bound per DNA molecule
  affinity for extended GAA repeats: no loss in affinity
